From US6699860B2, “Di-substituted aminomethyl-chroman derivative beta-3 adrenoreceptor agonists” (Bayer Pharmaceuticals Corporation, priority 2000, dated 2004) come the findings set out here.

Where a name gives a salt, the structure may show the parent alone.

One data set deals with T1, human beta-3-adrenergic receptor (Homo sapiens, UniProt P13945).
T1 construct: Chinese hamster ovary (CHO) cells that stably express full-length human beta-3-adrenergic receptor; expressed in transfected cells
T1 sequence (P13945 whole entry): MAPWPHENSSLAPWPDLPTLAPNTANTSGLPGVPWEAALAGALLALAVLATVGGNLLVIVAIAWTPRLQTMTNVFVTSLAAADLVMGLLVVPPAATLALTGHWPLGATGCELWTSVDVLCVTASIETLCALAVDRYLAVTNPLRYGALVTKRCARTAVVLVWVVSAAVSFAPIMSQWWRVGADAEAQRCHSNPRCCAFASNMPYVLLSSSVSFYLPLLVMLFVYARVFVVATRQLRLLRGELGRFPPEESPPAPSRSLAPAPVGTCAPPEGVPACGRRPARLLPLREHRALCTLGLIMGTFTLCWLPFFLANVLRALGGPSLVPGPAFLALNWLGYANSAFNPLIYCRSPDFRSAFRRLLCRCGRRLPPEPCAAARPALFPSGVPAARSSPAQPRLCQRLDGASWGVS
Nature of the data set: cAMP production (SPA) in CHO cells stably expressing human beta-3-adrenergic receptor, agonist activity. Format: cell-based. The conditions noted are these: cAMP production in CHO cells expressing human beta-3-adrenergic receptor; compounds binned (≦1 μM or >1 μM); read-out: Beta-3 Agonistic Activity, EC50 values. How it is done: The cell line is grown in 90% F12 nutrient mixture (HAM), 10% fetal bovine serum, 100 units/ml penicillin G sodium, […] streptomycin sulfate, and 2 mM L-glutamine at 37° C. in 95% air and 5% CO2. The transfected cell line is maintained with G418 (800ug/ml).
To test agonist activity, cells are exposed to test compound and then assayed for cAMP production. […] Test compounds are assayed from 10 μM to 3 nM with 3-fold serial dilutions. The control agonist, isoproterenol (10 mM stock in 1.1 mM ascorbate), is assayed by 3-fold dilution beginning at 1 μM. Following a 30-minute incubation with the test compounds, the buffer/compound mixture is removed. […] The cAMP values are then plotted to ascertain the EC50 of each compound tested.
In general terms: Changes in cAMP serve as a functional read-out for many G protein-coupled receptors.
The term EC50 denotes the midpoint of the concentration-response curve. Take `O=C(O)c1ccc(-c2ccc3c(c2)CC[C@H](CNC[C@H](O)CSc2ccc(C(F)(F)F)cc2)O3)cc1` [Example 181]: the 50% effective concentration (EC50) is over 1 µM. Still for that read-out and setting: the result for `O=C(O)c1ccc(-c2ccc3c(c2)CC[C@H](CNCC(O)COc2ccc(F)cc2)O3)cc1` (stereo partly shown) [Example 232] reads at most 1 µM.

As to `CC(C)CNc1cc(-c2ccc3c(c2)CC[C@H](CNC[C@H](O)COc2ccccc2)O3)ccc1C(=O)O` [Example 200], the EC50 was at most 1 µM. The same measure, in the same setting: with `O=C(O)c1cc(-c2ccc3c(c2)CC[C@H](CNC[C@H](O)COc2ccccc2)O3)cs1` [Example 183] the figure was at most 1 µM. Same read-out and setting: with `COc1cccc(SC[C@@H](O)CNC[C@H]2CCc3cc(-c4ccc(C(=O)O)cc4)ccc3O2)c1` [Example 178] the figure was over 1 µM. On to `COc1ccc(SC[C@@H](O)CNC[C@H]2CCc3cc(-c4ccc(C(=O)O)cc4)ccc3O2)cc1` [Example 179], for which the 50% effective concentration (EC50) was over 1 µM. Still for that read-out and setting: the result for `COC(=O)c1nc(-c2ccc3c(c2)CC[C@H](CNC[C@H](O)COc2ccccc2)O3)sc1-c1ccccc1` [Example 135] reads at most 1 µM. Same read-out and setting: the result for `O=C(O)c1ccc(-c2ccc3c(c2)CC[C@H](CNC[C@H](O)COc2ccccc2)O3)cc1NC1CCCCC1` [Example 197] reads at most 1 µM; that for `O=C(O)c1ccc(-c2ccc3c(c2)CC[C@H](CNC[C@H](O)CSc2cccc(F)c2)O3)cc1` [Example 175], over 1 µM.

On to `CCOc1cc(-c2ccc3c(c2)CC[C@H](CNC[C@H](O)COc2ccccc2)O3)ccc1C(=O)O` [Example 207], for which the EC50 is at most 1 µM. On the same count and under the same terms, the result for `O=C(O)CCc1ccc2c(c1)CC[C@H](CNC[C@H](O)COc1ccccc1)O2` [Example 263, 3-[(2R)-2-({[(2S)-2-Hydroxy-3-phenoxypropyl]amino}methyl)-3,4-dihydro-2H-chromen-6-yl]propanoic acid] reads at most 1 µM.

Turning to `COC(=O)c1nc(-c2ccc3c(c2)CC[C@H](CNC[C@H](O)COc2ccccc2)O3)sc1C(C)C` [Example 138], the EC50 was over 1 µM. The same measure, in the same setting: the result for `O[C@@H](CNC[C@H]1CCc2cc(I)ccc2O1)COc1ccccc1` [Example 80, (2S)-1-({[(2R)-6-iodo-3,4-dihydro-2H-chromen-2-yl]methyl}amino)-3-phenoxy-2-propanol] reads at most 1 µM; that for `O=C(O)CCc1ccc2c(c1)CC[C@H](CNC[C@H](O)COc1ccccc1Cl)O2` [Example 264, 3-[(2R)-2-({[(2S)-3-(2-chlorophenoxy)-2-hydroxypropyl]amino}methyl)-3,4-dihydro-2H-chromen-6-yl]propanoic acid], at most 1 µM; that for `Cc1ccc(-c2cc(-c3ccc4c(c3)CC[C@H](CNC[C@H](O)COc3ccccc3)O4)ccc2C(=O)O)cc1` [Example 217], at most 1 µM. For `O=C(O)c1ccc(-c2ccc3c(c2)CC[C@H](CNC[C@H](O)COc2ccccc2)O3)cc1-c1ccc(Cl)cc1` [Example 216], the EC50 is at most 1 µM.

Take `Nc1cc(-c2ccc3c(c2)CC[C@H](CNC[C@H](O)COc2ccccc2)O3)ccc1C(=O)O` [Example 198]: the EC50 was at most 1 µM.

For the compound `Cc1c(-c2ccc3c(c2)CC[C@H](CNC[C@H](O)COc2ccccc2)O3)c(C(=O)O)nn1C` [Example 184], the EC50 was at most 1 µM. Still for that read-out and setting: with `CCN(CC)c1cc(-c2ccc3c(c2)CC[C@H](CNC[C@H](O)COc2ccccc2)O3)ccc1C(=O)O` [Example 199] the figure was at most 1 µM. Same read-out and setting: the result for `O=C(O)c1cc(-c2ccc3c(c2)CC[C@H](CNC[C@H](O)COc2ccccc2)O3)cc2c1OCC2` [Example 185] reads at most 1 µM; that for `O=C(O)c1ccc(-c2ccc3c(c2)CCC(CNC[C@H](O)COc2ccccc2)O3)cc1-c1ccccc1` (stereo in doubt) [Example 215, 5-[(2S)-2-({[(2S)-2-hydroxy-3-phenoxypropyl]amino}methyl)-3,4-dihydro-2H-chromen-6-yl]-1,1′-biphenyl-2-carboxylic acid], at most 1 µM. On the same count and under the same terms, with `CCCCOc1cc(-c2ccc3c(c2)CC[C@H](CNC[C@H](O)COc2ccccc2)O3)ccc1C(=O)O` [Example 212] the figure was at most 1 µM; with `O=C(O)c1ccc(-c2ccc3c(c2)CC[C@H](CNC[C@H](O)CSc2ccc(F)cc2)O3)cc1` [Example 176], over 1 µM.

For the compound `CCc1ccc(SC[C@@H](O)CNC[C@H]2CCc3cc(-c4ccc(C(=O)O)cc4)ccc3O2)cc1` [Example 170], the concentration for a half-maximal effect (EC50) is over 1 µM.

Tested on in another data set: not given
Assay: not given
Conditions: not given
One may read the melting point as the temperature of the solid-liquid transition. As for `O=C(O)c1ccc(-c2ccc3c(c2)CC[C@H](CNC[C@H](O)COc2ccccc2)O3)cc1` (as salt: hydrochloride) [Example 142, 4-[(2R)-2-({[(2S)-2-Hydroxy-3-phenoxyropyl]amino}methyl)-3,4-dihydro-2H-chromen-6-yl]benzoic acid], the melting point worked out at 250 °C.
